# Measurements as given in patent publication US10085449B2, “N-[1-((6-chloropyridin-3-yl)methyl)pyridin-2(1H)-ylidene]-2,2,2- trifluoroacetamide for control of agricultural/horticultural pests” (priority 2010, dated 2018).
# Like-named read-outs stand apart in the source and are kept apart here.
# Experiments:
# diamondback moth = assay: whole plant or invertebrate; format: in vivo; conditions: Plutella xylostella, foliar
# Summary of the method: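 Cabbage leaf discs sprayed with compound in 50% acetone/water with 0.05% Tween 20, air-dried, then infested with second-instar larvae. Held at 25 °C under 16 h light/8 h dark; mortality from dead/(live+dead) counts after 3 days, two replicates.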
# brown-winged green bug = assay: Brown-winged green bug control test; format: in vivo; conditions: 50 ppm foliar application on young apples, adults, 6 days after release
# Protocol: Young apples that had been collected in the field were sprayed with solutions of the inventive compounds at a predetermined concentration prepared to 50% acetone/water (containing 0.05% Tween 20). The treated fruits were air-dried, placed in plastic cups and two adult brown-winged green bugs were released into each cup. Following release of the insects, the fruits and insects were held in an incubation chamber at 25° C. (16-hour period of light, 8-hour dark period). Six days after released, the numbers of live and dead insects were counted, and the mortality was calculated from the following formula. Mortality (%)=[number of dead insects/(number of live insects+number of dead insects)]×100
# house fly = assay: House fly control test (local application); format: in vivo; parameters: dose or concentration left out as unconfirmed
# Protocol: The inventive compounds prepared to a predetermined concentration in acetone were applied in an amount of 1 μL (per insect) to the backs of adult female flies raised indoors. Following chemical treatment, the flies were transferred to plastic cups, with five flies being placed in each cup, and held in an incubation chamber at 25° C. (16-hour period of light, 8-hour dark period). Twenty-four hours after treatment, the state of knockdown among the flies was observed, and the knockdown rate was calculated from the following formula. The test was carried out as two replications. Knockdown rate (%)=[number of knocked down insects/(number of live insects+number of knocked down insects)]×100
# rice water weevil = assay: Rice water weevil control test (soil drenching treatment); format: in vivo; conditions: 0.1 mg/seedling soil drenching of rice seedlings, adults, 3 days after release
# Protocol: (§1) Rice seedlings grown in pots were subjected to soil drenching treatment with solutions of the inventive compounds at a predetermined concentration prepared to 10% acetone/water. Two days after treatment, five adult rice water weevils were released onto each seedling. The seedlings and insects were then held in an incubation chamber at 25° C. (16-hour period of light, 8-hour dark period). Three days after released, the numbers of live and dead insects were counted, and the mortality was calculated from the following formula. The test was carried out as two replications. Mortality (%)=[number of dead insects/(number of live insects+number of dead insects)]×100
# [1] = system: brown rice planthopper having a low susceptibility to insecticides; format: in vivo; parameters: key to Brown rice planthopper, Kumamoto low susceptibility (rice soil drenching), effect: mortality %, dead/(live+dead) ×100; conditions: for Mortality: all the lines (susceptible line, field-collected lines I and II); for Insecticidal effects (mortality), brown rice planthopper second-instar larvae: soil drenching treatment
# Protocol: as §1, with “Three” for “Two”, “ten second-instar brown” for “five adult”, “planthopper larvae having a low susceptibility to insecticides” for “water weevils”
# The pests used in this test were insects that had been raised indoors for successive generations over a long period of time (susceptible line), and insects that had been raised indoors for successive generations after being collected (I) in 2007 within Kumamoto Prefecture and (II) in 2005 within Fukuoka Prefecture (field-collected lines).
# [2] = system: small brown planthopper having a low susceptibility to insecticides; assay: Small brown planthopper control test, pests having a low susceptibility to insecticides (soil drenching); format: in vivo; conditions: both lines (susceptible and field-collected)
# Protocol: as §1, with “Three” for “Two”, “ten second-instar small brown planthopper larvae having a low susceptibility to insecticides” for “five adult rice water weevils”
# The pests used in this test were insects that had been raised indoors for successive generations over a long period of time (susceptible line), and insects that had been raised indoors for successive generations after being collected in 2006 within Kumamoto Prefecture (field-collected line).
# [3] = system: Haemaphysalis longicornis; assay: Tick (Haemaphysalis longicornis) control test on body surface of mouse; format: in vivo, Haemaphysalis longicornis on mice (ICR); conditions: 20 μL of 1,000-fold dilution of agent prepared as in Formulation Example 11 on mouse body surface, larval ticks, 3 days after release
# Protocol: Ventral fur was shaved from an area having a diameter of about 2 cm in mice (ICR, 5-week-old males), and a 15 mL polystyrene conical tube cut to a length of about 1.5 cm was attached to the shaved area using instant glue.
# An amount of 20 μL of a 1,000-fold dilution of the pest control agent prepared in the same way as in Formulation Example 11 was added dropwise onto the body surface of the mice within the attached tube. After the solution was allowed to dry thoroughly, ten or more larval ticks (Haemaphysalis longicornis) were released into the tube, which was then capped. Three days after released, the numbers of live and dead ticks were counted, and the mortality was calculated from the following formula. Blood-feeding inhibition (%)=100−[number of feeding ticks/(number of live ticks+number of dead ticks)]×100
# [4] = read-out: Insecticidal effects (mortality), diamondback moth second-instar larvae
# [5] = 0.005 mg/seedling soil drenching
smiles,measurement,setting,value
"O=C(N=c1ccccn1Cc1ccc(Cl)nc1)C(F)(F)F [Compound 212, N-[1-((6-chloropyridin-3-yl)methyl)pyridin-2(1H)-ylidene]-2,2,2-trifluoroacetamide]",mortality at 20 ppm,diamondback moth; [4],100%
same,mortality at 100 ppm,diamondback moth; [4],100%
same,mortality at 500 ppm,diamondback moth; [4],100%
same,mortality at 100 ppm,"diamondback moth; in Brassica oleracea, 72 h",≥ 80%
same,mortality at 500 ppm,"diamondback moth; in Brassica oleracea, 72 h",≥ 80%
same,Mortality,brown-winged green bug,at least 80%
same,"Insecticidal effects (mortality), adult houseflies",house fly,100
same,Mortality,rice water weevil,at least 80%
same,Mortality,[1]; [5],at least 90%
same,Mortality,[1]; 0.05 mg/seedling soil drenching,100%
same,"Brown rice planthopper, Kumamoto low susceptibility (rice soil drenching), effect",[1]; 0.005 mg/pot,90
same,"Brown rice planthopper, Kumamoto low susceptibility (rice soil drenching), effect",[1]; 0.05 mg/pot,100
same,"Insecticidal effects (mortality), brown rice planthopper second-instar larvae",[1]; 0.02 mg/pot,100
same,"Insecticidal effects (mortality), brown rice planthopper second-instar larvae",[1]; 0.05 mg/pot,100
same,Mortality,[2]; [5],at least 90%
same,Mortality,[2]; 0.01 mg/seedling soil drenching,100%
same,Blood-feeding inhibition,[3],91%
